# Measured values from US6737383B1, “Herbicidal oxadiazolidines” (priority 1999, dated 2004).
# What was measured:
# [1] = tested on: soybean; experiment: Test B pre/postemergence soybean; type: in vivo, Glycine max; conditions: Preemergence, scale of 0 to 10 where 0 is no effect and 10 is complete control
# In short: (§1)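 Test chemicals in a non-phytotoxic solvent mixture with surfactant were sprayed preemergence onto planted seeds and postemergence onto plants 2 to 18 cm tall (1- to 4-leaf stage). After twelve to sixteen days in a greenhouse, injury was visually rated against untreated controls from 0 (no effect) to 10 (complete control).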
# [2] = tested on: morningglory; experiment: Test B pre/postemergence morningglory; type: in vivo, Ipomoea hederacea; conditions: Preemergence, scale of 0 to 10 where 0 is no effect and 10 is complete control
# In short: as §1
# [3] = tested on: bedstraw; experiment: Test B pre/postemergence bedstraw; type: in vivo, Galium aparine; conditions: Preemergence
# In short: as §1
# [4] = tested on: rape; experiment: Test B pre/postemergence rape; type: in vivo, Brassica napus; conditions: Preemergence, scale of 0 to 10 where 0 is no effect and 10 is complete control
# In short: as §1
# [5] = tested on: cocklebur; experiment: Test B pre/postemergence cocklebur; type: in vivo, Xanthium strumarium; conditions: Preemergence
# In short: as §1
# [6] = tested on: corn; experiment: Test B pre/postemergence corn; type: in vivo, Zea mays; conditions: Preemergence
# In short: as §1
# [7] = tested on: velvetleaf; experiment: Test B pre/postemergence velvetleaf; type: in vivo, Abutilon theophrasti; conditions: Preemergence, scale of 0 to 10 where 0 is no effect and 10 is complete control
# In short: as §1
# [8] = tested on: crabgrass; experiment: Test B pre/postemergence crabgrass; type: in vivo, Digitaria sanguinalis; conditions: Preemergence
# In short: as §1
# [9] = tested on: surinam grass; experiment: Test B pre/postemergence surinam grass; type: in vivo, Brachiaria decumbens; conditions: Preemergence
# In short: as §1
# [10] = tested on: rice; experiment: Test B flood test rice; type: in vivo, Oryza sativa
# In short: (§2)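 Read-out is a visual response score from 0 (no effect) to 10 (complete control), assigned by comparison with untreated controls. Treatment was applied at the 2-leaf stage, and plants stayed in the greenhouse for twelve to sixteen days before scoring.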
# [11] = tested on: blackgrass; experiment: Test B pre/postemergence blackgrass; type: in vivo, Alopecurus myosuroides; conditions: Preemergence
# In short: as §1
# [12] = tested on: wheat; experiment: Test B pre/postemergence wheat; type: in vivo, Triticum aestivum; conditions: Preemergence, scale of 0 to 10 where 0 is no effect and 10 is complete control
# In short: as §1
# [13] = tested on: pigweed; experiment: Test B pre/postemergence pigweed; type: in vivo, Amaranthus retroflexus; conditions: Preemergence, scale of 0 to 10 where 0 is no effect and 10 is complete control
# In short: as §1
# [14] = tested on: purple nutsedge; experiment: Test B pre/postemergence purple nutsedge; type: in vivo, Cyperus rotundus; conditions: Preemergence, scale of 0 to 10 where 0 is no effect and 10 is complete control
# In short: as §1
# [15] = tested on: wild oat; experiment: Test B pre/postemergence wild oat; type: in vivo, Avena fatua; conditions: Preemergence, Rate 125 g/ha; scale of 0 to 10 where 0 is no effect and 10 is complete control
# In short: as §1
# [16] = tested on: bamyardgrass; experiment: Test B flood test barnyardgrass; type: in vivo, Echinochloa crus-galli
# In short: as §2
# [17] = tested on: smallflower flatsedge; experiment: Test B flood test smallflower flatsedge; type: in vivo, Cyperus difformis
# In short: as §2
# [18] = tested on: giant foxtail; experiment: Test B pre/postemergence giant foxtail; type: in vivo, Setaria faberii; conditions: Preemergence, scale of 0 to 10 where 0 is no effect and 10 is complete control
# In short: as §1
# [19] = tested on: sugar beet; experiment: Test B pre/postemergence sugar beet; type: in vivo, Beta vulgaris; conditions: Preemergence, scale of 0 to 10 where 0 is no effect and 10 is complete control
# In short: as §1
# [20] = tested on: duck salad; experiment: Test B flood test duck salad; type: in vivo, Heteranthera limosa
# In short: as §2
# [21] = Rate 62 g/ha, scale of 0 to 10 where 0 is no effect and 10 is complete control
# [22] = Rate 125 g/ha, scale of 0 to 10 where 0 is no effect and 10 is complete control
# [23] = Rate 250 g/ha, scale 0 to 10 (0 no effect, 10 complete control)
# [24] = Rate 500 g/ha, scale of 0 to 10 where 0 is no effect and 10 is complete control
# [25] = Rate 62 g/ha, flood test species, Pre-emergence, visual evaluation after twelve to sixteen days
# [26] = Rate 125 g/ha, under heading Pre-emergence, flood test species, visual evaluation after twelve to sixteen days
# [27] = Rate 250 g/ha, Pre-emergence (flood test species), scale 0 to 10, 0 is no effect, 10 is complete control
# [28] = Rate 500 g/ha, Pre-emergence section of Table B, 0 to 10 scale (0 no effect, 10 complete control)
structure (smiles),measurement,setting,value
CC(C)N(C(=O)n1oc(=O)n(C(C)C2CCC2)c1=O)c1ccc(F)cc1F (stereo not drawn) [Compound 702],Soybean plant response rating,[1]; Rate 62 g/ha,0
same,"Plant response rating, Soybean",[1]; Rate 125 g/ha,0
same,Morningglory plant response rating,[2]; Rate 62 g/ha,0
same,"Plant response rating, Morningglory",[2]; Rate 125 g/ha,0
same,Bedstraw plant response rating,[3]; [21],0
same,"Plant response rating, Bedstraw",[3]; [22],0
same,"Plant response rating, Bedstraw",[3]; [23],0
same,"Plant response rating, Bedstraw",[3]; [24],0
same,Rape plant response rating,[4]; Rate 62 g/ha,0
same,"Plant response rating, Rape",[4]; Rate 125 g/ha,0
same,Cocklebur plant response rating,[5]; [21],0
same,"Plant response rating, Cocklebur",[5]; [22],0
same,"Plant response rating, Cocklebur",[5]; [23],0
same,"Plant response rating, Cocklebur",[5]; [24],0
same,Corn plant response rating,[6]; [21],0
same,"Plant response rating, Corn",[6]; [22],0
same,"Plant response rating, Corn",[6]; [23],0
same,Velvetleaf plant response rating,[7]; Rate 62 g/ha,0
same,"Plant response rating, Velvetleaf",[7]; Rate 125 g/ha,0
same,Crabgrass plant response rating,[8]; [21],9
same,"Plant response rating, Crabgrass",[8]; [22],10
same,"Plant response rating, Crabgrass",[8]; [23],10
same,B. signalgrass plant response rating,[9]; [21],0
same,"Plant response rating, B. signalgrass",[9]; [22],2
same,"Plant response rating, B. signalgrass",[9]; [23],2
same,"Plant response rating, B. signalgrass",[9]; [24],8
same,"Plant response rating, Rice (0 to 10 scale, 0 is no effect, 10 is complete control)",[10]; [25],0
same,"Rice plant response rating (0 to 10 scale, 0 is no effect, 10 is complete control)",[10]; [26],0
same,Rice plant response rating,[10]; [27],0
same,Rice plant response rating,[10]; [28],0
same,Blackgrass plant response rating,[11]; [21],2
same,"Plant response rating, Blackgrass",[11]; [22],2
same,"Plant response rating, Blackgrass",[11]; [23],9
same,"Plant response rating, Blackgrass",[11]; [24],10
same,Wheat plant response rating,[12]; Rate 62 g/ha,0
same,"Plant response rating, Wheat",[12]; Rate 125 g/ha,0
same,Redroot pigweed plant response rating,[13]; Rate 62 g/ha,2
same,"Plant response rating, Redroot pigweed",[13]; Rate 125 g/ha,5
same,Nutsedge plant response rating,[14]; Rate 62 g/ha,0
same,"Plant response rating, Nutsedge",[14]; Rate 125 g/ha,0
same,"Plant response rating, Wild oats",[15],0
same,"Plant response rating, Barnyardgrass (0 to 10 scale, 0 is no effect, 10 is complete control)",[16]; [25],0
same,"Barnyardgrass plant response rating (0 to 10 scale, 0 is no effect, 10 is complete control)",[16]; [26],0
same,Barnyardgrass plant response rating,[16]; [27],0
same,Barnyardgrass plant response rating,[16]; [28],0
same,"Plant response rating, S. Flatsedge (0 to 10 scale, 0 is no effect, 10 is complete control)",[17]; [25],0
same,"S. Flatsedge plant response rating (0 to 10 scale, 0 is no effect, 10 is complete control)",[17]; [26],0
same,S. Flatsedge plant response rating,[17]; [27],0
same,S. Flatsedge plant response rating,[17]; [28],0
same,Giant foxtail plant response rating,[18]; Rate 62 g/ha,10
same,"Plant response rating, Giant foxtail",[18]; Rate 125 g/ha,10
same,Sugarbeets plant response rating,[19]; Rate 62 g/ha,0
same,"Plant response rating, Sugarbeets",[19]; Rate 125 g/ha,0
same,"Plant response rating, Ducksalad (0 to 10 scale, 0 is no effect, 10 is complete control)",[20]; [25],0
same,"Ducksalad plant response rating (0 to 10 scale, 0 is no effect, 10 is complete control)",[20]; [26],0
same,Ducksalad plant response rating,[20]; [27],0
same,Ducksalad plant response rating,[20]; [28],0
